{"source": "paper PMC3454376", "about": "“Salidroside Improves Behavioral and Histological Outcomes and Reduces Apoptosis via PI3K/Akt Signaling after Experimental Traumatic Brain Injury” (PLoS ONE, 2012)", "test_system": "mice subjected to controlled cortical impact injury", "assay": "Brain water content (brain edema) after CCI", "type": "in vivo", "conditions": "day 1, vehicle 84.5±1.2%", "procedure": "All animal procedures were approved by the Animal Research Committee at Cheng Hsin General Hospital (Animal permit number […] 101-08), and all procedures complied with the Guide for the Care and Use of Laboratory Animals published by the US National Institutes of Health (NIH Publication No. 85-23, revised 1996). Animals were housed under a 12-h light/dark cycle and at constant temperature (21-25°C) and humidity (45-50%). They were allowed free access to pellet chow and water. TBI in mice was induced by a CCI injury model as previously described. Briefly, 8-week-old male C57BL/6 mice (weighing 22-25 g) were anesthetized through the use of intraperitoneal injection of sodium pentobarbital (65 mg/kg; Rhone Merieux, Harlow, UK) and placed in a stereotaxic frame. A 5 mm craniotomy was performed over the right parietal cortex, centered on the coronal suture and 0.1 mm lateral to the sagittal suture, and injury to dura was avoided. […] Body temperature was monitored throughout the surgery by a rectal probe; temperature was maintained at 37.0±0.5°C using a heated pad. […] To determine the optimal dose of salidroside, a pilot study was performed using 2 different doses (20 and 50 mg/kg) administered 10 min after injury, and neurological deficits and tissue damage were evaluated as the main outcomes. […]"}
{"smiles": "OC[C@H]1O[C@@H](OCCc2ccc(O)cc2)[C@H](O)[C@@H](O)[C@@H]1O", "note": "[SALD, salidroside]", "values": [{"measurement": "brain water content, ipsilateral hemisphere", "setting": "20 mg/kg ip 10 min after CCI, sham 80.7±0.6%, P<0.05", "result": "81.0±0.6", "unit": "%"}, {"measurement": "brain water content, ipsilateral hemisphere", "setting": "50 mg/kg ip 10 min after CCI, not significant", "result": "82.2±1.1", "unit": "%"}]}
